Measurements: US8110657B2, “Polypeptides and polynucleotides for enhancing immune reactivity to HER-2 protein” (priority 1999, dated 2012)

System: autologous targets
Experiment: CTL assay (chromium release)
Format: cell-based
Settings: two in vitro re-stimulations, IL-2 added

Substance: DW2: amino acids 391-399 of the HER-2 protein, T cell epitope (PLQPEQLQV; UniProt P04626 391-399, looked up, fragment)
- CTL lysis of targets: able to specifically lyse autologous targets in a dose dependent manner
